For one data set, the target named is T1, recombinant caspase 3 (Homo sapiens, UniProt P42574).
T1 construct: His tag (C); made in house; host or cells: E. coli
T1 sequence (P42574 29-175 limits assumed): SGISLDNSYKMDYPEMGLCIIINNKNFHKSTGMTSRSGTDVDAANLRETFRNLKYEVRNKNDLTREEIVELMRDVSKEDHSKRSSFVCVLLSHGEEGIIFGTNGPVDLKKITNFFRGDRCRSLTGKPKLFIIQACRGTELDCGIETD
T1 sequence (P42574 176-277 limits assumed): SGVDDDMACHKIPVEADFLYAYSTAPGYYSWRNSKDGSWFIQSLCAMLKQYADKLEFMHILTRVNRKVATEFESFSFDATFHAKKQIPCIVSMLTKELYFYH
Put plainly: Caspase 3 Inhibition Assay (Ac-DEVD-AFC fluorogenic substrate cleavage). It counts as biochemical. Particulars: pH 7.2, 23° C.; for IC50: recombinant caspase 3 0.25 nM, Ac-DEVD-AFC 25 μM; for inhibition at 50 µM: @ 50 μM compound. As for the experimental part: Caspase 3 was expressed intracellularly in E. coli with a c-terminal His tag. Fermentation was performed at 25° C. in a B. Braun Biotech Biostat C 10 liter bioreactor vessel. The culture was collected in IL bottles and centrifuged in Komspin KA-7.1000 rotors at approximately 8000 RCF (Relative Centrifugal Force). The cell pellets were re-suspended in 20 mM Tris pH 8.0, 500 mM NaCl, and 5 mM imidazole. The cell suspension was disrupted by passing 5 times through a microfluidizer Model 110Y (Microfluidics Corp, Newton, Mass). After centrifugation (13 kg, 30 min at 4 C), the supernatant was applied to a column of Nickle-NTA agarose. The Caspase 3 was eluted with a gradient of 5 mM to 150 mM imidazole in the above buffer. Fractions containing Caspase 3 were pooled and concentrated with a Millipore Ultrafree filtration device. The concentrated Caspase 3 solution was loaded unto a TSK gel G3000sw column (Tosoh Bioseph LLC), equilibrated with a buffer of 20 mM PIPES pH 7.2, 100 mM NaCl, 1 mM EDTA & 5 mM Cysteine. Fractions containing Caspase 3 were pooled and concentrated. Sometimes CHAPS was added to 0.1% and sucrose to 10% into the protein sample.
Caspase 3 was assayed at 23° C. (room temp) in 96-well plates using the internally quenched tetrapeptide substrate N-acetyl-aspartyl-glutamyl-valyl-aspartate-7-amino-4-trifluoromethyl coumarin (Ac-DEVD-AFC purchased from Biomol). The assays are conducted at pH 7.2 in a buffered system containing 20 mM PIPES, 100 mM NaCl, 1 mM EDTA, 0.1% CHAPS, 10% sucrose and 5 mM L-cysteine. […] A steady state rate of substrate cleavage is obtained for analysis.
The progress curves generated were fitted by computer to equation 1 to generate an IC50 value. Equation 1: y=Bmax*(1−(x^n/(K^n+x^n))), where Bmax is rate in the absence of inhibitor.

Setting [1] is: recombinant caspase 3, Ac-DEVD-AFC 25 μM, read-out: percent inhibition at the highest compound concentration.

SMILES strings stand for the structures. Counter-ions that a name gives are not always drawn.

For the molecule `CNS(=O)(=O)c1ccc2c(c1)C(=O)C1=NCCCN12` [Example 7, N-Methyl-10-oxo-2,3,4,10-tetrahydropyrimido[1,2-a]indole-8-sulfonamide], the melting point – broadly, the temperature, or range, at which the solid turns liquid – was 170 to 183 °C (dec.). On recombinant caspase 3, the IC50 (commonly the concentration that inhibits the measured activity by half) came to 1270 nM.

Turning to `CC1(C)CN=C2C(=O)c3cc(S(=O)(=O)N4CCC[C@H]4CO)ccc3N2C1` [Example 8, 8-{[(2S)-2-(Hydroxymethyl)pyrrolidin-1-yl]sulfonyl}-3,3-dimethyl-3,4-dihydropyrimido[1,2-a]indol-10(2H)-one], the melting point is 91 to 96 °C (dec.). The concentration for half-maximal inhibition (IC50) at recombinant caspase 3 was determined as 25 nM.

Consider `COC[C@@H]1CCCN1S(=O)(=O)c1cc2c(cc1Cl)N1CCCN=C1C2=O` (hydrate or solvate) [Example 5, 7-Chloro-8-{[(2S)-2-(methoxymethyl)pyrrolidin-1-yl-]sulfonyl}-3,4-dihydropyrimido[1,2-a]indol-10(2H)-one], for which the melting point fell in the range of 127 to 130 °C.

`CC1CCN=C2C(=O)c3cc(Br)ccc3N21` (stereo not drawn) [Example 13, 8-Bromo-4-methyl-3,4-dihydropyrimido[1,2-a]indol-10(2H)-one] had a melting point of 127 to 129 °C. The IC50 on recombinant caspase 3 stood at 50000 nM.

With `Cc1ccc2c(c1)C(=O)C1=NCCCN12` (hydrate or solvate) [Example 10, 8-Methyl-3,4-dihydropyrimido[1,2-a]indol-10(2H)-one], the melting point lay within 163 to 164 °C.

`O=C1C2=NCCCN2c2ccc(Br)cc21` [Example 9, 8-Bromo-3,4-dihydropyrimido[1,2-a]indol-10(2H)-one]: the melting point is 166 to 168 °C (dec.). Further, the inhibition at 50 µM on recombinant caspase 3 (setting [1]) was 72%.

The molecule `O=C1C2=NCCCN2c2cc(Cl)c([N+](=O)[O-])cc21` (hydrate or solvate) [Example 15, 7-Chloro-8-nitro-3,4-dihydropyrimido[1,2-a]indol-10(2H)-one] had a melting point of 152 to 165 °C.

`COC[C@@H]1CCCN1S(=O)(=O)c1ccc2c(c1)C(=O)C1=NCC3(CCCC3)CN12` showed a melting point of 171.2 to 171.9 °C.

Take `O=C1C2=NCCCN2c2ccc(O)cc21` [Example 19, 8-Hydroxy-3,4-dihydropyrimido[1,2-a]indol-10(2H)-one]: the melting point was 265 °C (dec.). Also, the inhibition at 50 µM on recombinant caspase 3 (setting [1]) came out at 2%.

For the molecule `CC1(C)CN=C2C(=O)c3cc(C#N)ccc3N2C1` (hydrate or solvate) [Example 20, 3,3-Dimethyl-10-oxo-2,3,4,10-tetrahydropyrimido[1,2-a]indole-8-carbonitrile], the melting point fell in the range of 178 to 184 °C.

With `COC[C@@H]1Cc2ccccc2N1S(=O)(=O)c1ccc2c(c1)C(=O)C1=NCC(C)(C)CN12` [Example 33, 8-{[(2S)-2-(Methoxymethyl)-2,3-dihydro-1H-indol-1-yl]sulfonyl}-3,3-dimethyl-3,4-dihydropyrimido[1,2-a]indol-10(2H)-one], the melting point lay within 173.4 to 175 °C. For the same molecule, the 50% inhibitory concentration (IC50) on recombinant caspase 3 turned out to be 555 nM.

Turning to `COc1ccc2c(c1)C(=O)C1=NCCCN12` (hydrate or solvate) [Example 11, 8-Methoxy-3,4-dihydropyrimido[1,2-a]indol-10(2H)-one], the melting point worked out at 152 °C.

For `COC[C@@H]1CCCN1S(=O)(=O)c1ccc2c(c1)C(=O)C1=NCCCN12` [Example 1, 8-{[(2S)-2-(Methoxymethyl)pyrrolidin-1-yl]sulfonyl}-3,4-dihydropyrimido[1,2-a]indol-10(2H)-one], the melting point was in the range of 171 to 172 °C. Besides, the 50% inhibitory concentration (IC50) on recombinant caspase 3 was found to be 27 nM.

The molecule `CC1(C)CN=C2C(=O)c3cc(Cl)ccc3N2C1` (hydrate or solvate) [Example 14, 8′-Chloro-3′,3′-dimethyl-3′,4′-dihydropyrimido[1,2-a]indol-10(2H)-one] showed a melting point of 153 to 154 °C.

The molecule `O=C1C2=NCC3(CCCC3)CN2c2ccc(S(=O)(=O)N3CCC[C@H]3CN3CCOCC3)cc21` [Example 83, 8′-{[(2S)-2-(morpholin-4-ylmethyl)pyrrolidin-1-yl]sulfonyl}spiro[cyclopentane-1,3′-pyrimido[1,2-a]indol]-10′(2′H)-one] registered a melting point of 162.9 to 163.6 °C. In addition, the IC50 at recombinant caspase 3 came out at 14 nM.

In turn, `O=C1C2=NCCCN2c2ccc(S(=O)(=O)N3CCC[C@H]3COc3ccccc3)cc21` [Example 3] gave a melting point of 159 to 160 °C.

`O=C1C2=NCCCN2c2ccc(F)cc21` [Example 18, 8-Fluoro-3,4-dihydropyrimido[1,2-a]indol-10(2H)-one] had a melting point of 150 to 152 °C. Also, the inhibition at 50 µM on recombinant caspase 3 (setting [1]) stood at 26%.

As for `COC[C@H]1CCCN1S(=O)(=O)c1ccc2c(c1)C(=O)C1=NCC(C)(C)CN12`, the melting point is 161 to 164 °C.

`O=C(Nc1ccc2c(c1)C(=O)C1=NCCCN12)c1ccccc1` (as salt: trifluoroacetic acid salt) [Example 17, N-(10-Oxo-2,3,4,10-tetrahydropyrimido[1,2-a]indol-8-yl)benzamide trifluoroacetic acid salt] displayed a melting point of 155 to 168 °C.

`CC1CCN2C(=N1)C(=O)c1cc(S(=O)(=O)N3CCCC3)ccc12` (stereo not drawn) [Example 87] showed a melting point of 152.5 to 153 °C. On recombinant caspase 3, the IC50 turned out to be 15 nM.

`COC[C@@H]1CCCN1S(=O)(=O)c1ccc2c(c1)C(=O)C1=NCC(C)(C)CN12` registered a melting point of 163 to 165 °C.

As for `CC1(C)CN=C2C(=O)c3cc(S(=O)(=O)N4CCc5ccccc54)ccc3N2C1` [Example 32, 8-(2,3-Dihydro-1H-indol-1-ylsulfonyl)-3,3-dimethyl-3,4-dihydropyrimido[1,2-a}indol-10(2H)-one], the melting point was 169.8 to 170.8 °C. Moreover, the IC50 on recombinant caspase 3 was determined as 16 nM.

On to `CC1(C)CN=C2C(=O)c3cc(S(=O)(=O)N4CCC[C@H]4COc4ccccc4)ccc3N2C1`, for which the melting point is 73 to 88 °C (dec.).

As to `Nc1cc2c(cc1Cl)N1CCCN=C1C2=O` [Example 16, 8-Amino-7-chloro-3,4-dihydropyrimido[1,2-a]indol-10(2H)-one], the melting point was more than 270 °C.

Take `CC1(C)CN=C2C(=O)c3cc(S(=O)(=O)N4CCCC4)ccc3N2C1` [Example 12, 3,3-Dimethyl-8-(pyrrolidin-1-ylsulfonyl)-3,4-dihydropyrimido[1,2-a]indol-10(2H)-one]: the melting point fell in the range of 200 to 201 °C. Besides, at recombinant caspase 3, the 50% inhibitory concentration (IC50) was found to be 9 nM.

In the case of `COC[C@@H]1CCCN1C(=O)c1ccc2c(c1)C(=O)C1=NCC(C)(C)CN12` [Example 75, 8-{[(2S)-2-(Methoxymethyl)pyrrolidin-1-yl]carbonyl}-3,3-dimethyl-3,4-dihydropyrimido[1,2-a]indol-10(2H)-one], the inhibition at 1 µM at recombinant caspase 3 (@ 1 μM compound, recombinant caspase 3, Ac-DEVD-AFC 25 μM, read-out: percent inhibition at the highest compound concentration) was determined as 10%.

With `CC1(C)CN=C2C(=O)c3cc(S(=O)(=O)N4CCC[C@H]4COc4cccnc4Br)ccc3N2C1` [Example 35, 8-[((2S)-2-{[(2-Bromopyridin-3-yl)oxy]methyl}pyrrolidin-1-yl)sulfonyl]-3,3-dimethyl-3,4-dihydropyrimido[1,2-a]indol-10(2H)-one], the inhibition at 50 µM on recombinant caspase 3 (setting [1]) is 26%.

On to `Cc1ccc(OC[C@@H]2CCCN2S(=O)(=O)c2ccc3c(c2)C(=O)C2=NCC(C)(C)CN23)cn1` [Example 44, 3,3-Dimethyl-8-[((2S)-2-{[(6-methylpyridin-3-yl)oxy]methyl}pyrrolidin-1-yl)sulfonyl]-3,4-dihydropyrimido[1,2-a]indol-10(2H)-one], for which the IC50 at recombinant caspase 3 turned out to be 19 nM.

With `COc1ccc2c(c1)C(=O)C1=NCCCN12` [Example 11, 8-Methoxy-3,4-dihydropyrimido[1,2-a]indol-10(2H)-one], the inhibition at 50 µM on recombinant caspase 3 (setting [1]) worked out at 9%.

Take `Cc1ccc(S(=O)(=O)Nc2ccc3c(c2)C(=O)C2=NCC(C)(C)CN23)cc1` [Example 51, N-(3,3-Dimethyl-10-oxo-2,3,4,10-tetrahydropyrimido[1,2-a]indol-8-yl)-4-methylbenzenesulfonamide]: the half-inhibitory concentration (IC50) on recombinant caspase 3 amounted to 714 nM.
